Here are results for 14 compounds from patent US4070470A, “Platelet aggregation inhibiting carbostyrils, their compositions and method of use” (Otsuka Pharmaceutical Co., Ltd., priority 1974, dated 1978).

Structures are written as SMILES.

Data set [1] has as its system blood platelets. The note with it: at low concentrations; cited from earlier work.
Data set [2] relates to thrombosis. The following applies: administered orally or intravenously to mammals including humans; cited from earlier work.
Data set [3] has as its system ADP-induced aggregation in rabbit platelet. The data set can be described thus: Inhibition effect on ADP-induced aggregation in rabbit platelet. Type of data set: cell-based. The following applies: rabbit platelet (PRP); for inhibition at 100 µM / inhibition at 10 µM / inhibition at 1 µM / inhibition at 0.01 µM / inhibition at 0.1 µM: Oryctolagus cuniculus, Platelet; for inhibition at 0.01 µM: 10^-8 M test compound solution. The procedure: (§1) The aggregation inhibitory activity was determined using an AG-II type aggregometer (made by Bryston Manufacturing Co.). A blood sample was withdrawn from rabbits as a mixture of sodium citrate and whole blood in a proportion of 1 : 9 by volume and centrifuged at 1000 rpm for 10 minutes to obtain a platelet rich plasma (PRP). The resulting PRP was separated, and the remaining blood sample was further centrifuged at 3000 rpm for 15 minutes to obtain a platelet poor plasma (PPP).
(§2) The number of platelets in the PRP was counted in accordance with the Brecher-Clonkite Method, and the PRP was diluted with the PPP to prepare a PRP sample containing platelets in an amount of 300,000/[…] for an adenosine diphosphate (ADP)-induced aggregation test and a PRP sample containing platelets in an amount of 450,000/[…] for a collagen-induced aggregation test.
(§3) 0.01 ml of a solution of a test compound having a predetermined concentration (as shown in the Tables below) was then added to 0.6 ml of the PRP sample obtained above and the mixture was incubated at a temperature of 37° C for 1 minute. Then 0.07 ml of an ADP or collagen solution was added to the mixture. The mixture was then subjected to a transmittance determination and changes in the transmittance of the mixture were recorded using aggregometer at a stirrer rotation rate of 1100 rpm. In this test, Auren Beronal buffer (pH 7.35) was used for the preparation of solutions of ADP, collagen and the test compounds. ADP was adjusted to a concentration of 7.5 × 10^-5 M, and the collagen solution was prepared by triturating 100 mg of collagen with 5 ml of the above buffer and the supernatant obtained was used as a collagen inducer. Adenosine and acetylsalicyclic acid were used as controls for the ADP-induced aggregation test and the collagen-induced aggregation test, respectively. The aggregation inhibitory activity was determined in terms of the percent inhibition (%) with respect to the aggregation ratio of controls. The aggregation ratio can be calculated by the following equation: [formula] Wherein: "a" is the optical density of the PRP,
(§4) "b" is the optical density of the PRP having incorporated therein a test compound and an aggregation inducer, and
(§5) "c" is the optical density of the PPP.

Data set [4] relates to collagen-induced aggregation in rabbit platelet. The data set can be described thus: Inhibition effect on collagen-induced aggregation in rabbit platelet. Type of data set: cell-based. The note with it: rabbit platelet (PRP); for inhibition at 100 µM / inhibition at 10 µM / inhibition at 1 µM / inhibition at 0.01 µM: Oryctolagus cuniculus, Platelet; for inhibition at 100 µM: 10^-4 M test compound solution; for inhibition at 0.01 µM: 10^-8 M test compound solution. The procedure:
as §1, §2, §3, §4, §5

Data set [5] is described as follows: Toxicity of benzcycloamide derivatives in mouse (LD50). The following applies: in vivo. The source says:
All the benzcycloamide derivatives represented by the aforesaid general formulas (I) are novel compounds having excellent platelet aggregation-inhibiting effects and are useful as preventives for thrombosis. […] Compounds tested: [drawing 17]

Turning to `CC(C)(C)NCC(O)COc1cccc2c1CCC(=O)N2` (stereo not drawn) [5-(2'-hydroxy-3-tert-butylamino)-propoxy-3,4-dihydrocarbostyril], in data set [1], the “inhibition of the aggregation of blood platelets” value was “at low concentrations could specifically inhibit the aggregation of blood platelets”. In data set [2], the “preventing and treating thrombosis” value was “very effective for preventing and treating thrombosis”.

In the case of `CCOC(=O)C(C)Oc1ccc2c(c1)CCC(=O)N2` (stereo not drawn) [A], the inhibition (in general, the drop in the measured response relative to a control, in per cent) at 100 µM amounted to 57% in data set [3] (10^-4 M test compound solution) and 71% in data set [4]. For the same compound, the figures for the inhibition at 10 µM in data set [3] (10^-5 M test compound solution) and in data set [4] (10^-5 M test compound solution) were 25% and 20%, respectively. Besides, the inhibition at 1 µM stood at 5% in data set [3] (10^-6 M test compound solution) and 2% in data set [4] (10^-6 M test compound solution). Besides, the inhibition at 0.01 µM in data set [4] stood at 0%.

`CCOC(=O)C(C)Oc1ccc2[nH]c(=O)ccc2c1` (stereo not drawn) [B]: the inhibition at 100 µM in data set [3] (10^-4 M test compound solution) was 86%; in data set [4], 67%. The inhibition at 10 µM amounted to 54% in data set [3] (10^-5 M test compound solution) and 12% in data set [4] (10^-5 M test compound solution). The inhibition at 1 µM in data set [3] (10^-6 M test compound solution) and in data set [4] (10^-6 M test compound solution) was -6% each time. Further, the inhibition at 0.01 µM came out at 14% in data set [3] and 0% in data set [4].

Regarding `CCOC(=O)C(C)Oc1ccc2c(c1)CCC(=O)N2C` (stereo not drawn) [C], the inhibition at 100 µM in data set [3] (10^-4 M test compound solution) and in data set [4] was 36% each time. In addition, the inhibition at 1 µM in data set [3] (10^-6 M test compound solution) and in data set [4] (10^-6 M test compound solution) was 0% throughout. In addition, the inhibition at 0.01 µM in data set [3] and in data set [4] was 9% each time.

Consider `CCOC(=O)C(C)Oc1cccc2c1NC(=O)CC2` (stereo not drawn) [Compound M], for which the inhibition at 100 µM in data set [3] (10^-4 M test compound solution) turned out to be 3%; in data set [4], 5%. For the same compound, the values for the inhibition at 1 µM in data set [3] (10^-6 M test compound solution) and in data set [4] (10^-6 M test compound solution) were 11% and 2%, respectively. The inhibition at 0.01 µM is 11% in data set [3] and 7% in data set [4].

In the case of `CCOC(=O)C(C)Oc1ccc2c(c1)NC(=O)CC2` (stereo not drawn) [D], the inhibition at 100 µM in data set [3] (10^-4 M test compound solution) was -18%; in data set [4] it was 2%. The inhibition at 1 µM came out at 14% in data set [3] (10^-6 M test compound solution) and 8% in data set [4] (10^-6 M test compound solution). Also, the values for the inhibition at 0.01 µM in data set [3] and in data set [4] were 14% and 3%, respectively.

Consider `CCOC(=O)CCCOc1ccc2c(c1)CCC(=O)N2` [E], for which the LD50 in data set [5] (Female mouse) and in data set [5] (Male mouse) was > 1000 mg/kg throughout. In addition, the inhibition at 100 µM in data set [3] (10^-4 M test compound solution) stood at 100%; in data set [4], 92%. Also, the inhibition at 10 µM in data set [3] (10^-5 M test compound solution) was 97%.

Take `CCCCCOC(=O)C(C)Oc1ccc2c(c1)CCC(=O)N2` (stereo not drawn) [F]: the inhibition at 100 µM in data set [3] (10^-4 M test compound solution) is 100%; in data set [4], 88%. The inhibition at 10 µM in data set [3] (10^-5 M test compound solution) was found to be 79%; in data set [4] (10^-5 M test compound solution), 8%. Moreover, the inhibition at 1 µM in data set [3] (10^-6 M test compound solution) is 20%; in data set [4] (10^-6 M test compound solution), 0%.

As for `CC(C)OC(=O)C(C)Oc1ccc2[nH]c(=O)ccc2c1` (stereo not drawn) [G], the inhibition at 100 µM in data set [3] (10^-4 M test compound solution) was determined as 74%; in data set [4] it was 55%. Also, the inhibition at 10 µM was determined as 38% in data set [3] (10^-5 M test compound solution) and 25% in data set [4] (10^-5 M test compound solution). For the same compound, the inhibition at 1 µM in data set [3] (10^-6 M test compound solution) came to 7%; in data set [4] (10^-6 M test compound solution), 3%.

For the compound `CCOC(=O)CCCOc1cccc2c1CCC(=O)N2` [H], the values for the inhibition at 100 µM in data set [3] (10^-4 M test compound solution) and in data set [4] were 65% and 90%, respectively. Moreover, the inhibition at 10 µM in data set [3] (10^-5 M test compound solution) was determined as 18%; in data set [4] (10^-5 M test compound solution), 8%. The inhibition at 1 µM in data set [3] (10^-6 M test compound solution) was 2%; in data set [4] (10^-6 M test compound solution), 5%.

On to `CCCCCOC(=O)CCCOc1ccc2c(c1)CCC(=O)N2` [I], for which the inhibition at 100 µM in data set [3] (10^-4 M test compound solution) came out at 82%; in data set [4], 48%. Besides, the inhibition at 10 µM was 58% in data set [3] (10^-5 M test compound solution) and 22% in data set [4] (10^-5 M test compound solution). The inhibition at 1 µM worked out at 0% in data set [3] (10^-6 M test compound solution) and 6% in data set [4] (10^-6 M test compound solution). For the same compound, in data set [3] (10^-7 M test compound solution), the inhibition at 0.1 µM was determined as 8%.

Turning to `CCOC(=O)CCCOc1ccc2c(c1)CCC(=O)N2` [J], the “Inhibition effect on ADP-induced aggregation” value in data set [3] (10^-4 M test compound solution) is listed as 100%; in data set [3] (10^-5 M test compound solution), 90%; in data set [3] (10^-6 M test compound solution), 25%; in data set [3] (10^-7 M test compound solution), -4%. In addition, the results for the “Inhibition effect on collagen-induced aggregation” value in data set [4] (10^-5 M test compound solution) and in data set [4] (10^-6 M test compound solution) were 86% and 18%, respectively.

Consider `CCOC(=O)CCCCCCOc1ccc2c(c1)CCC(=O)N2` [K], for which the results for the LD50 in data set [5] (Female mouse) and in data set [5] (Male mouse) were 500 to 1000 mg/kg and 750 to 1000 mg/kg, respectively. The inhibition at 100 µM in data set [3] (10^-4 M test compound solution) came to 37%; in data set [4], 31%. The inhibition at 10 µM in data set [3] (10^-5 M test compound solution) was 15%; in data set [4] (10^-5 M test compound solution), 13%. Besides, the inhibition at 1 µM in data set [3] (10^-6 M test compound solution) worked out at 10%; in data set [4] (10^-6 M test compound solution), 6%. For the same compound, the inhibition at 0.1 µM in data set [3] (10^-7 M test compound solution) stood at 7%.

On to `O=C(O)CCCCCCOc1ccc2c(c1)CCC(=O)N2` [L], for which the inhibition at 100 µM in data set [3] (10^-4 M test compound solution) came to 13%; in data set [4], 15%. In addition, the inhibition at 10 µM in data set [3] (10^-5 M test compound solution) came to 8%; in data set [4] (10^-5 M test compound solution) it was 14%. In addition, the inhibition at 1 µM in data set [3] (10^-6 M test compound solution) turned out to be 7%; in data set [4] (10^-6 M test compound solution), 2%. The inhibition at 0.1 µM in data set [3] (10^-7 M test compound solution) was -10%.
